Measurements: PubChem BioAssay AID1963830 (Molecular Pharmacology Branch, DTP, NCI, 2024)
Where “and” joins values, the source holds several entries; their conditions need not be identical. Equal values may be shown once.

Test system: 922993-354-T-J3-PDC complex spheroid viability
Assay: Anticancer human tumor 922993-354-T-J3-PDC patient-derived endometrial carcinoma cell line growth inhibition [POLQ]
Settings: for viability, T/C: stronger effect = lower value
Procedure: Multicellular complex tumor spheroid response to Polymerase (POL) inhibitors (novobiocin, ART-558, RP6685) in combination with a variety of drugs and investigational agents in selected tumor cell lines
The POL inhibitors (novobiocin, ART-558, and RP6685) were evaluated both individually and in combination with standard of care and investigational anticancer small molecules within a complex spheroid model of solid tumors. . Complex spheroids include a stromal component modeled by human endothelial cells (HUVEC) and fibroblasts modeled by human mesenchymal stem cells (MSCs). The concentration ranges selected for each drug and investigational agent were based upon clinically achievable concentrations if the clinical Cmax of the agent was known.
Compounds. The drugs and investigational agents: novobiocin (NSC847541), ART-558 (NSC835418), RP-6685 (NSC848927), peposertib (NSC802822), ceralasertib (NSC780249), elimusertib (NSC800525), camonsertib (NSC841442), AZD-1390 (NSC803789), olaparib (NSC753686), talazoparib (NSC767125), rucaparib (NSC756644), sotorasib (NSC818433), MRTX-1133 (NSC836407), SN-38 (NSC673596), topotecan (NSC609699), epotoside (NSC141540), doxorubicin (NSC123127), gemcitabine (NSC613327), 5-fluorouracil (NSC19893), paclitaxel (NSC125973), vemurafenib (NSC761431), MSA-2 (NSC828583), SN-011 (NSC837082), adavosertib (NSC754352), prexasertib (NSC758257), carboplatin (NSC241240) and oxaliplatin (NSC266046), were obtained from the National Cancer Institute (NCI) Developmental Therapeutics Program Chemical Repository (21). The FDA-approved anticancer drug set is available from the Developmental Therapeutics Program at https://dtp.cancer.gov/organization/dscb/obtaining/. […] The stock solutions were prepared in dimethyl sulfoxide (DMSO, Sigma-Aldrich, St. Louis, MO, cat. D2650), except for the platinum compounds which were prepared in saline (Quality Biological, Gaithersburg, MD, cat. 114-055-101), at 800-fold the tested concentration and stored at -70 degrees C prior to their use. All drugs and investigational agents were tested over a range starting from a high concentration at or near the clinical Cmax and decreasing in half-log increments. If the clinical Cmax for an agent had not been determined, the highest concentration tested was 10 microM, except for SN-38, which was tested at a high concentration of 1 microM.
Cell Culture. All cells were maintained in an incubator at 37 degrees C and 5% CO2 with 95% humidity. The PDC lines were cultured according to standard operating procedures established by the NCI PDMR (https://pdmr.cancer.gov). Table 3 of the manuscript, lists the cell lines along with the number of the three cell types plated to form the mct-spheroids and media for tumor cell growth. After thawing, all PDC lines, except 997537-175-T-J1-PDC and 415267-285-R-J2-PDC, were cultured in Matrigel-coated flasks prepared with a working solution of 1X Ham's F-12 nutrient mix, without supplementation (Thermo Fisher Scientific, cat. 11765054), 100 U/mL penicillin-streptomycin (Thermo Fisher Scientific, cat. 15140122), and 2.5% Matrigel (Corning Inc., Corning, NY, cat. 354248) for the first three passages. The two PDC lines 997537-175-T-J1-PDC and 415267-285-R-J2-PDC were cultured on uncoated flasks. The 857933-349-R-J2-PDC line was cultured in 6C/Colon 1B media containing advanced DMEM/F-12 (Thermo Fisher Scientific, cat. 12634028), 10 mM HEPES (Thermo Fisher Scientific, cat. 15630080), 1X GlutaMAX supplement (Thermo Fisher Scientific, cat. 35050061), 0.1 mg/mL primocin (InvivoGen, San Diego, CA, cat. ant-pm-2), 10% defined fetal bovine serum, heat inactivated (HyClone Laboratories Inc., Logan, UT, cat. SH30070.03HI), 50% L-WRN conditioned media (ATCC, cat. CRL-3276), 1.25 mM N-Acetyl-L-cysteine (Sigma-Aldrich, cat. A9165), 10 mM nicotinamide (Sigma-Aldrich, cat. N0636), 1X B-27 supplement (Thermo Fisher Scientific, cat. 17504044), 1X N-2 supplement (Thermo Fisher Scientific, cat. […]
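Note: spheroids exposed to the agents for one week.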
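Throughout, for viability, T/C: 100% = DMSO vehicle control wells.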

C=CC(=O)N1CCN(c2nc(=O)n(-c3c(C)ccnc3C(C)C)c3nc(-c4c(O)cccc4F)c(F)cc23)C(C)C1 (centres undefined)
viability, T/C (compound 0.0316 µM): 107% and 106% and 97.9%
viability, T/C (compound 0.1 µM): 93.5% and 101% and 94.9%
viability, T/C (compound 0.316 µM): 96% and 106% and 92.7%
viability, T/C (compound 1 µM): 104% (2×) and 107%
viability, T/C (compound 3.16 µM): 105% and 104% and 97.4%
viability, T/C (compound 10 µM): 98.8% and 106% and 75%
IC50 (curve of compound): > 10 µM

CC(=O)O[C@H]1C(=O)[C@@]2(C)[C@H]([C@H](OC(=O)c3ccccc3)[C@]3(O)C[C@H](OC(=O)[C@H](O)[C@@H](NC(=O)c4ccccc4)c4ccccc4)C(C)=C1C3(C)C)[C@]1(OC(C)=O)CO[C@@H]1C[C@@H]2O + Nc1ccc(C#CCN(C(=O)Cc2ncc(C(F)(F)F)cc2C(F)(F)F)c2ccc(F)cc2)nn1
IC50 (curve of first compound, second compound 0.0316 µM): > 3 µM
IC50 (curve of first compound, second compound 0.1 µM): > 3 µM
IC50 (curve of first compound, second compound 0.316 µM): > 3 µM
IC50 (curve of first compound, second compound 1 µM): > 3 µM
IC50 (curve of first compound, second compound 3.16 µM): > 3 µM
IC50 (curve of first compound, second compound 10 µM): > 3 µM
viability, T/C (second compound 0.0316 µM, first compound 0.00949 µM): 105%
viability, T/C (second compound 0.0316 µM, first compound 0.03 µM): 107%
viability, T/C (second compound 0.0316 µM, first compound 0.0949 µM): 102%
viability, T/C (second compound 0.0316 µM, first compound 0.3 µM): 105%
viability, T/C (second compound 0.0316 µM, first compound 0.949 µM): 99%
viability, T/C (second compound 0.0316 µM, first compound 3 µM): 73.4%
viability, T/C (second compound 0.1 µM, first compound 0.00949 µM): 105%
viability, T/C (second compound 0.1 µM, first compound 0.03 µM): 106%
viability, T/C (second compound 0.1 µM, first compound 0.0949 µM): 106%
viability, T/C (second compound 0.1 µM, first compound 0.3 µM): 106%
viability, T/C (second compound 0.1 µM, first compound 0.949 µM): 99.9%
viability, T/C (second compound 0.1 µM, first compound 3 µM): 72.4%
viability, T/C (second compound 0.316 µM, first compound 0.00949 µM): 107%
viability, T/C (second compound 0.316 µM, first compound 0.03 µM): 107%
viability, T/C (second compound 0.316 µM, first compound 0.0949 µM): 104%
viability, T/C (second compound 0.316 µM, first compound 0.3 µM): 103%
viability, T/C (second compound 0.316 µM, first compound 0.949 µM): 96.6%
viability, T/C (second compound 0.316 µM, first compound 3 µM): 78.1%
viability, T/C (second compound 1 µM, first compound 0.00949 µM): 107%
viability, T/C (second compound 1 µM, first compound 0.03 µM): 100%
viability, T/C (second compound 1 µM, first compound 0.0949 µM): 104%
viability, T/C (second compound 1 µM, first compound 0.3 µM): 107%
viability, T/C (second compound 1 µM, first compound 0.949 µM): 91.7%
viability, T/C (second compound 1 µM, first compound 3 µM): 71.4%
viability, T/C (second compound 3.16 µM, first compound 0.00949 µM): 101%
viability, T/C (second compound 3.16 µM, first compound 0.03 µM): 105%
viability, T/C (second compound 3.16 µM, first compound 0.0949 µM): 98.3%
viability, T/C (second compound 3.16 µM, first compound 0.3 µM): 101%
viability, T/C (second compound 3.16 µM, first compound 0.949 µM): 83.7%
viability, T/C (second compound 3.16 µM, first compound 3 µM): 69.8%
viability, T/C (second compound 10 µM, first compound 0.00949 µM): 90.6%
viability, T/C (second compound 10 µM, first compound 0.03 µM): 84.3%
viability, T/C (second compound 10 µM, first compound 0.0949 µM): 69.5%
viability, T/C (second compound 10 µM, first compound 0.3 µM): 69.8%
viability, T/C (second compound 10 µM, first compound 0.949 µM): 60.8%
viability, T/C (second compound 10 µM, first compound 3 µM): 54.8%
